Laboratory results published in patent US20250135021A1, “USE OF ANTIBODY-DRUG CONJUGATE, AND COMBINED DRUG AND USE THEREOF” (SHANGHAI MIRACOGEN INC., priority 2021, published 2025).

Experiments:
[1] = tested on: human lung cancer PDX model LUN #2210-106; assay: Efficacy of MYK-3, AK103 and their combination in human lung cancer PDX model LUN #2210-106 in Hu-HSC-NPG mice; type: in vivo; conditions: Day 20
Description: LUN #2210-106 is an AZD9291-resistant human adenosquamous carcinoma of the lung PDX model. This experiment was performed in total of 4 groups, including a Vehicle group (ADC-3 vehicle), an ADC-3 administration group (1 mg/kg), an AK103 administration group (5 mg/kg), and an ADC-3 (1 mg/kg)+AK103 (5 mg/kg) administration group. During the entire experiment, ADC-3 was administered three times in total for the ADC-3 single-drug administration group, via tail vein injection on Day 0, Day 4, and Day 8; and AK103 was administered every three days via tail vein injection for the AK103 single-drug administration group, 8 times in total. For the ADC-3+AK103 administration group, ADC-3 was administered three times, and AK103 was administered ten times in total, and their administration modes were the same as those for the single-drug administration groups. The experiment period was 34 days. […] During the period from Day 20 to Day 34, the mean tumor volume of animals in the ADC-3 (1 mg/kg) administration group gradually resumed growth (from 184 mm^3 to 893 mm^3); the mean tumor volume of animals in the ADC-3 (1 mg/kg)+AK103 (5 mg/kg) administration group grew slowly (from 38 mm^3 to 126 mm^3), and on Day 34, complete tumor regression was still observed in 1 out of 6 animals.

[2] = tested on: AZD9291-resistant human adenosquamous carcinoma of the lung PDX model LUN #2441-118; assay: Efficacy in AZD9291-resistant human lung cancer PDX model LUN #2441-118; type: in vivo, immunodeficient mice; conditions: Day 25
Text: (§1) The human-derived tumor tissue xenograft model (PDX model) is a tumor model established in immunodeficient mice using human tumor tissue, which retains the heterogeneity, molecular diversity and histological characteristics of the primary tumor to the greatest extent. It has a high predictive value for the clinical therapeutic effect of drugs and has been increasingly used in cancer research (Hidalgo-2014) in recent years. […] In all experiments, the commercially available third-generation EGFR inhibitor AZD9291 was used as a reference drug to compare tumor inhibition activities.
LUN #2441-118 is an AZD9291-resistant human adenosquamous carcinoma of the lung PDX model. […] During the entire experiment, ADC-3 was administered four times in total, via tail vein injection on Day 0, Day 4, Day 8, and Day 12, and AZD9291 was administered 28 times in total, once a day by intragastric administration. The experiment period was 28 days. […] Tumor-bearing mice had good tolerance to the tested drugs.

[3] = tested on: AZD9291-resistant human adenosquamous carcinoma of the lung PDX model LUN #2210-4a; assay: Efficacy in AZD9291-resistant human lung cancer PDX model LUN #2210-4a; type: in vivo, immunodeficient mice; conditions: Day 28
Text: as §1
LUN #2210-4a is an AZD9291-resistant human adenosquamous carcinoma of the lung PDX model. […] During the entire experiment, ADC-3 was administered four times in total, via tail vein injection on Day 0, Day 4, Day 8, and Day 12, and AZD9291 was administered 28 times in total, once a day by intragastric administration. […] Tumor-bearing mice had good tolerance to the tested drugs.

[4] = tested on: AZD9291-resistant human lung adenocarcinoma PDX model LUN #2005-143; assay: Efficacy in AZD9291-resistant human lung cancer PDX model LUN #2005-143; type: in vivo, immunodeficient mice; conditions: Day 29
Text: as §1
LUN #2005-143 is an AZD9291-resistant human lung adenocarcinoma (a type of NSCLC) PDX model. This experiment was performed in total of 4 groups, including a Vehicle group (ADC-3 vehicle), an AZD9291 administration group (5 mg/kg), and ADC-3 administration groups (1 mg/kg and 3 mg/kg). During the entire experiment, ADC-3 was administered four times in total, via tail vein injection on Day 0, Day 4, Day 8, and Day 12, and AZD9291 was administered 29 times in total, once a day by intragastric administration. […] In terms of body weight, all animals in the tested drug groups had good tolerance. […] In this experiment, tumor-bearing mice had good tolerance to the tested drugs.

[5] = tested on: AZD9291-resistant human large cell lung carcinoma PDX model LUN #2355-128; assay: Efficacy in AZD9291-resistant human lung cancer PDX model LUN #2355-128; type: in vivo, immunodeficient mice; conditions: Day 16
Description: The human-derived tumor tissue xenograft model (PDX model) is a tumor model established in immunodeficient mice using human tumor tissue, which retains the heterogeneity, molecular diversity and histological characteristics of the primary tumor to the greatest extent. […] In all experiments, the commercially available third-generation EGFR inhibitor AZD9291 was used as a reference drug to compare tumor inhibition activities.
This experiment was performed in total of 4 groups, including a Vehicle group (ADC-3 vehicle), an AZD9291 administration group (5 mg/kg), and ADC-3 administration groups (1 mg/kg and 3 mg/kg). During the entire experiment, ADC-3 was administered four times in total, via tail vein injection on Day 0, Day 4, Day 8, and Day 12, and AZD9291 was administered 27 times in total, once a day by intragastric administration. The experiment period was 27 days.

[6] = tested on: AZD9291-resistant human adenosquamous carcinoma of the lung PDX model LUN #2210-106; assay: Efficacy in AZD9291-resistant human lung cancer PDX model LUN #2210-106; type: in vivo, immunodeficient mice; conditions: Day 30
Text: as §1
LUN #2210-106 is an AZD9291-resistant human adenosquamous carcinoma of the lung PDX model. This experiment was performed in total of 4 groups, including a Vehicle group (ADC-3 vehicle), an AZD9291 administration group (5 mg/kg), and ADC-3 administration groups (1 mg/kg and 3 mg/kg). During the entire experiment, ADC-3 was administered four times in total, via tail vein injection on Day 0, Day 4, Day 8, and Day 12, and AZD9291 was administered 30 times in total, once a day by intragastric administration. […] Tumor-bearing mice had good tolerance to the tested drugs.

[7] = 5 mg/kg intragastric once a day
[8] = AZD9291 dose 3 mg/kg in Table 4

“AK103: anti-PD-1 monoclonal antibody drug and immune checkpoint inhibitor” was tested, and the “Relative tumor proliferation rate T/C (%)” value ([1]; 5 mg/kg i.v. every three days) was 93.61%, the “Tumor growth inhibition rate TGI %” value ([1]; 5 mg/kg i.v. every three days) was 6.39% and the Tumor inhibition activity ([1]; 5 mg/kg) was “+ (T/C (%) >40%)”.
For `C=CC(=O)Nc1cc(Nc2nccc(-c3cn(C)c4ccccc34)n2)c(OC)cc1N(C)CCN(C)C` [AZD9291, osimertinib, reference compound], the “Relative tumor proliferation rate T/C (%)” value [2, 7] was 29.35%, the “Tumor growth inhibition rate TGI %” value [2, 7] was 70.65% and the “Relative tumor proliferation rate T/C (%)” value [2, 8] was 29.35%. The Tumor inhibition activity [2, 8] was “++ (T/C (%) >20% and ≤40%)”, the “Relative tumor proliferation rate T/C (%)” value [3, 7] was 68.99% and the “Tumor growth inhibition rate TGI %” value [3, 7] was 31.01%. For the same molecule, the “Tumor growth inhibition rate TGI %” value [3, 8] was 31.01%, the Tumor inhibition activity [3, 8] was “+ (T/C (%) >40%)” and the “Relative tumor proliferation rate T/C (%)” value [4, 7] was 36.90%. For the same molecule, the “Tumor growth inhibition rate TGI %” value [4, 7] was 63.10%, the Tumor inhibition activity ([4]; 5 mg/kg) was “++ (T/C (%) >20% and ≤40%)” and the “Relative tumor proliferation rate T/C (%)” value [5, 7] was 33.61%. For the same molecule, the “Tumor growth inhibition rate TGI %” value [5, 7] was 66.39%, the Tumor inhibition activity ([5]; 5 mg/kg) was “++ (T/C (%) >20% and ≤40%)” and the “Relative tumor proliferation rate T/C (%)” value [6, 7] was 65.31%. The “Tumor growth inhibition rate TGI %” value [6, 7] was 34.69% and the Tumor inhibition activity ([6]; 5 mg/kg) was “+ (T/C (%) >40%)”.
